# Values of other authors, collected in patent publication US6375634B1, “APPARATUS AND METHOD TO ENCAPSULATE, KILL AND REMOVE MALIGNANCIES, INCLUDING SELECTIVELY INCREASING ABSORPTION OF X-RAYS AND INCREASING FREE-RADICAL DAMAGE TO RESIDUAL TUMORS TARGETED BY IONIZING AND NON-IONIZING RADIATION THERAPY” (Oncology Innovations, Inc., priority 1997, dated 2002).
# “Also recorded” adds a separate entry of the source.
# How the values were obtained:
# [1] = iron overload states
# DNA [2] = conditions: in the presence of hydrogen peroxide, among ferric iron chelates
# [3] = test system: human pancreatic adenocarcinoma AsPC-1 cells
# DNA [4] = test system: DNA
# [5] = presence of l-histidine
# [6] = test system: Chinese hamster ovary cells
compound,measurement,setting,value
[Fe] [iron],tissue iron level at which the heart sustains injury,[1],approximately one thousand
O=C(O)CN(CC(=O)O)CC(=O)O.[Fe+3] [ferric nitrilo tri-acetic acid],DNA damage,DNA [2],produced the most DNA damage
Cc1c(N)nc([C@H](CC(N)=O)NC[C@H](N)C(N)=O)nc1C(=O)N[C@H](C(=O)N[C@H](C)[C@@H](O)[C@H](C)C(=O)N[C@H](C(=O)NCCc1nc(-c2nc(C(=O)NCCC[S+](C)C)cs2)cs1)[C@@H](C)O)[C@@H](O[C@@H]1O[C@@H](CO)[C@@H](O)[C@H](O)[C@@H]1O[C@H]1O[C@H](CO)[C@@H](O)[C@H](OC(N)=O)[C@@H]1O)c1c[nH]cn1.[Br-] [Bleomycin A2],cell cycle effect in flow-cytometric analysis,[3],induced G2/M block
same,induction of apoptosis,[3],did not induce apoptosis
N[C@@H](Cc1c[nH]cn1)C(=O)O [l-histidine],DNA destroyed,DNA [4]; 80 micromoles hydrogen peroxide with 300 micromoles l-histidine present,more than 50%
same,sensitivity of hydrogen peroxide resistant cell lines,[5],rendered sensitive
ferritin,toxicity,[6]; 32 micrograms/ml,nontoxic; also recorded: not toxic
same,reduction of clonogenic-cell survival after x-irradiation,"[6]; 32 micrograms/ml ferritin, 4.0 Gray",approximately 75%
same,clonogenic-cell survival after x-irradiation,"[6]; 32 micrograms/ml ferritin, 4.0 Gray (about 0.66 without ferritin)",~0.17
OO [hydrogen peroxide],DNA injury,"DNA [4]; 80 micromoles hydrogen peroxide, absence of histidine",no injury
